Source: patent publication US11008323B2, “Substituted tricyclic 1,4-benzodiazepinone derivatives as allosteric modulators of group II metabotropic glutamate receptors” (Domain Therapeutics, priority 2015, dated 2021)

Target: T1, human mGluR3 (hmGluR3) (Homo sapiens, UniProt Q14832)
T1 construct: expressed in transfected cells; host or cells: HEK-293 cells, transient co-transfection by electroporation
Assay: Human mGluR3 positive allosteric modulator evaluation using Ca++ functional assay
Type: cell-based
Details: hmGluR3 transiently over-expressed in HEK-293 cells; stimulated by EC50 glutamate concentration; intracellular Ca2+ (Fluo4AM, FLIPR Tetra)
Experimental: Compounds of the present invention were tested successively for their agonist and positive allosteric modulator activities on human mGluR3 (hmGluR3) transiently over-expressed in HEK-293 cells. Compounds exert agonist activity if they are able to activate hmGluR3 by themselves, i.e., in absence of the endogenous agonist glutamate; and they exert positive allosteric modulator activity if they increase the action of the endogenous agonist glutamate.
HEK-293 cells were maintained in Modified Eagle's Medium supplemented with 10% Foetal Calf Serum, 1% Penicillin/Streptomycin and 1% non-essential amino acids at 37° C./5% CO2.
Cells were co-transfected by electroporation with four DNA plasmids encoding hmGluR3, a chimeric G protein allowing redirection of the activation signal toward intracellular calcium pathway, and two glutamate transporters so as to decrease extracellular glutamate levels and avoid receptor desensitization (Brabet I et al., Neuropharmacology 37(8), 1043-51, 1998). After transfection, cells were seeded in 75 cm^2 culture flasks, and cultured for 24 h.
Receptor activity was detected by changes in intracellular calcium measured using the fluorescent Ca^2+ sensitive dye, Fluo4AM (Molecular Probes).
The day of the assay, medium was aspirated and replaced during 3 hrs by freshly prepared buffer B (HBSS 1×, Hepes 20 mM, MgSO4-7H2O 1 mM, Na2CO3 3.3 mM, CaCl2-2H2O 1.3 mM, 0.5% BSA, Probenecid 2.5 mM). Then, cells were loaded at 37° C./5% CO2 for 1.5 hrs with buffer B containing 1 μM Fluo4AM, 0.1 mg/mL Pluronic Acid, 7 μg/mL Glutamate Pyruvate Transaminase and 2 mM sodium pyruvate. Afterwards cells were washed with buffer B. Cells were then detached from the 75 cm^2 culture flasks with Accutase® (5 min incubation at 37° C.), centrifuged (5 min at 840 rpm), resuspended in buffer B and finally seeded at a density of 30,000 cells/well in black-walled clear-bottom 384-well plates. Addition of compounds on cells and intracellular Ca^2+ measurements (excitation 485 nm, emission 525 nm) were performed by the fluorescence microplate reader FLIPR Tetra (Molecular Devices).
Agonist and positive allosteric modulator activities of compounds were consecutively evaluated on the same cells plate. Agonist activity was first tested during 10 min with the addition of compound alone on the cells. Then, the cells were stimulated by an EC50 glutamate concentration and fluorescence was recorded for additional 3 min. EC50 glutamate concentration is the concentration giving 50% of the maximal glutamate response. Agonist and/or positive allosteric modulator activity(ies) were evaluated in comparison to basal signal or signal evoked by EC50 glutamate concentration alone, respectively.
For potency determination, a dose-response test was performed using 20 concentrations of each compound of the invention. Dose-response curves were fitted using the sigmoïdal dose-response (variable slope) analysis in XLfit Scientific Curve Fitting for Excel (IDBS). EC50 of agonist/EC50 of positive allosteric modulator activity(ies) were calculated. Dose-response experiments were all performed in duplicate, two times independently.

T1 sequence (Q14832 23-879): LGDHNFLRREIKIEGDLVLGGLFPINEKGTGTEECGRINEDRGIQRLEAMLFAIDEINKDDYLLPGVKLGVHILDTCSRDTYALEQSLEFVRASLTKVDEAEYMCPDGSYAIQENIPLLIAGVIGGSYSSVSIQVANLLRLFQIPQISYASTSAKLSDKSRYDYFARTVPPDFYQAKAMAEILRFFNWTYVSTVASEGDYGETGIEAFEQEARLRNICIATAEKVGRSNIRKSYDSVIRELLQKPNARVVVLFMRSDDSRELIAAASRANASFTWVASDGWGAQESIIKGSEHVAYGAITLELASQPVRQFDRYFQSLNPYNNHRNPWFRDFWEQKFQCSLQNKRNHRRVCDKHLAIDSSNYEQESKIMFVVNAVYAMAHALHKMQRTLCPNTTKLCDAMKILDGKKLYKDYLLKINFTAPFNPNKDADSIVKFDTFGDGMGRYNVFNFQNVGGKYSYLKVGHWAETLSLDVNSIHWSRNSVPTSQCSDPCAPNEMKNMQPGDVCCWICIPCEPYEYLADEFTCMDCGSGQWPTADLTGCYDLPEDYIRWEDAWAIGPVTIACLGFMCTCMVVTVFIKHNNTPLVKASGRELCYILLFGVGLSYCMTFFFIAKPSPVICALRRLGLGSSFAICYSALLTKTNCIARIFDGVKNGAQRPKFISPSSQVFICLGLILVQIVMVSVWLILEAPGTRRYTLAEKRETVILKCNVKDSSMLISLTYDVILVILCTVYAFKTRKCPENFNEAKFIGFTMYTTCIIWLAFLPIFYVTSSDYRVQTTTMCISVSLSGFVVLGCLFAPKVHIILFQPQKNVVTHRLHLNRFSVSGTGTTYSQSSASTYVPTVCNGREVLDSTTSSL

SMILES	EC50 [nM]
Cc1ncncc1-c1ccc2c(c1)-n1cccc1C(=O)N(C)C21CC1 [Example 59, 5-Methyl-9-(4-methyl-pyrimidin-5-yl)-spiro[benzo[f]pyrrolo[1,2-a][1,4]diazepine-6,1′-cyclopropan]-4(5H)-one]	> 1000
CN(C)c1ccc2c(c1)-n1cc(-c3ccccc3)cc1C(=O)N(C)C21CC1 [Example 115, 9-Dimethylamino-5-methyl-2-phenyl-spiro[benzo[f]pyrrolo[1,2-a][1,4]diazepine-6,1′-cyclopropan]-4(5H)-one]	> 1000
Cc1cc(-c2ccc3c(c2)-n2nc(-c4ccccc4)cc2C(=O)N(C)C32CC2)ccn1 [Example 122, 9-(2-Methyl-pyridin-4-yl)-5-methyl-2-phenyl-spiro[benzo[f]pyrazolo[1,5-a][1,4]diazepine-6,1′-cyclopropan]-4(5H)-one]	100 to 1000
Cc1ncccc1-c1ccc2c(c1)-n1cc(-c3cccc(Cl)c3)cc1C(=O)N(C)C21CC1 [Example 148]	100 to 1000
CN1C(=O)c2cc(-c3nnco3)cn2-c2cc(Br)ccc2C12CC2 [Example 189]	> 1000
CN1C(=O)c2cccn2-c2cc(-c3ccc(N4CCCCC4)nc3)ccc2C12CC2 [Example 43, 5-Methyl-9-(3,4,5,6-tetrahydro-2H-[1,2′]bipyridinyl-5′-yl)-spiro[benzo[f]pyrrolo[1,2-a][1,4]diazepine-6,1′-cyclopropan]-4(5H)-one]	> 1000
CN1C(=O)c2cccn2-c2ccc(Br)cc2C12CC2 [Example 13, 8-Bromo-5-methyl-spiro[benzo[f]pyrrolo[1,2-a][1,4]diazepine-6,1′-cyclopropan]-4(5H)-one]	> 1000
Cc1ncccc1-c1cc2c(cc1F)C1(CC1)N(C)C(=O)c1cccn1-2 [Example 77, 8-Fluoro-5-methyl-9-(2-methyl-pyridin-3-yl)-spiro[benzo[f]pyrrolo[1,2-a][1,4]diazepine-6,1′-cyclopropan]-4(5H)-one]	100 to 1000
Cc1ncccc1-c1ccc2c(c1)-n1cc(-c3ccc(F)cc3)cc1C(=O)N(C)C21CC1 [Example 150]	100 to 1000
CN1C(=O)c2cc(-c3ccccc3)cn2-c2ccc(Br)cc2C12CC2 [Example 16, 8-Bromo-5-methyl-2-phenyl-spiro[benzo[f]pyrrolo[1,2-a][1,4]diazepine-6,1′-cyclopropan]-4(5H)-one]	> 1000
CN1C(=O)c2cc(-c3ccccc3)cn2-c2cc(-c3cncnc3)ccc2C12CC2 [Example 104, 5-Methyl-2-phenyl-9-(pyrimidin-5-yl)-spiro[benzo[f]pyrrolo[1,2-a][1,4]diazepine-6,1′-cyclopropan]-4(5H)-one]	100 to 1000
CCc1ncccc1-c1ccc2c(c1)-n1cc(CO)cc1C(=O)N(C)C21CC1 [Example 203]	100 to 1000
CN1C(=O)c2cc(-c3ccccc3)cn2-c2cc(-c3cccnn3)ccc2C12CC2 [Example 109, 5-Methyl-2-phenyl-9-pyridazin-3-yl-spiro[benzo[f]pyrrolo[1,2-a][1,4]diazepine-6,1′-cyclopropan]-4(5H)-one]	100 to 1000
CN1C(=O)c2cccn2-c2cc(Br)ccc2C12CC2 [Example 1, 9-Bromo-5-methyl-spiro[benzo[f]pyrrolo[1,2-a][1,4]diazepine-6,1′-cyclopropan]-4(5H)-one]	100 to 1000
CC(=O)c1cc2n(c1)-c1cc(-c3cccnc3C)ccc1C1(CC1)N(C)C2=O [Example 195]	100 to 1000
CCC1c2ccc(Br)cc2-n2cccc2C(=O)N1C (stereo not shown) [Example 214, 9-Bromo-5-methyl-6-ethyl-5,6-dihydro-benzo[f]pyrrolo[1,2-a][1,4]diazepin-4-one]	> 1000

Further lines, results first:

EC50 [nM]	SMILES
100 to 1000	Cc1ncccc1-c1ccc2c(c1)-n1cc(CC3CCCC3)cc1C(=O)N(C)C21CC1 [Example 196]
100 to 1000	CN1C(=O)c2cccn2-c2cc(-c3ccc(N4CCOCC4)nc3)ccc2C12CC2 [Example 42, 5-Methyl-9-(6-morpholin-4-yl-pyridin-3-yl)-spiro[benzo[f]pyrrolo[1,2-a][1,4]diazepine-6,1′-cyclopropan]-4(5H)-one]
100 to 1000	CCC1c2ccc(-c3cccnc3C)cc2-n2cccc2C(=O)N1C (stereo not shown) [Example 220, 6-Ethyl-5-methyl-9-(2-methyl-pyridin-3-yl)-5,6-dihydro-benzo[f]pyrrolo[1,2-a][1,4]diazepin-4-one]
< 100	Cc1cc2n(c1)-c1cc(-c3ccc(C)nc3)ccc1C1(CC1)N(C)C2=O [Example 198]
< 100	CN1C(=O)c2cccn2-c2cc(-c3ccc4nccn4c3)ccc2C12CC2 [Example 41, 5-Methyl-9-(imidazo[1,2-a]pyridin-6-yl)-spiro[benzo[f]pyrrolo[1,2-a][1,4]diazepine-6,1′-cyclopropan]-4(5H)-one]
< 100	Cc1ccc(-c2ccc3c(c2)-n2cccc2C(=O)N(C)C32CC2)cn1 [Example 25, 5-Methyl-9-(6-methylpyridin-3-yl)-spiro[benzo[f]pyrrolo[1,2-a][1,4]diazepine-6,1′-cyclopropan]-4(5H)-one]
100 to 1000	Cc1ncccc1-c1ccc2c(c1)-n1cccc1C(=O)N(C)C2(C)C [Example 223, 5,6,6-Trimethyl-9-(2-methyl-pyridin-3-yl)-5,6-dihydro-benzo[f]pyrrolo[1,2-a][1,4]diazepin-4-one]
< 100	CCc1cc2n(c1)-c1cc(-c3cccnc3C)ccc1C1(CC1)N(C)C2=O [Example 197]
< 100	Cc1ccc(-c2ccc3c(c2)-n2cc(-c4ccccc4)cc2C(=O)N(C)C32CC2)cn1 [Example 103, 5-Methyl-2-phenyl-9-(6-methyl-pyridin-3-yl)-spiro[benzo[f]pyrrolo[1,2-a][1,4]diazepine-6,1′-cyclopropan]-4(5H)-one]
< 100	CCc1ccc(-c2ccc3c(c2)-n2cc(-c4ccccc4)cc2C(=O)N(C)C32CC2)cn1 [Example 112, 5-methyl-2-phenyl-9-(6-ethylpyridin-3-yl)-spiro[benzo[f]pyrrolo[1,2-a][1,4]diazepine-6,1′-cyclopropan]-4(5H)-one]
100 to 1000	Cc1ncccc1-c1ccc2c(c1)-n1cc(N(C)C)cc1C(=O)N(C)C21CC1 [Example 154]
100 to 1000	CN1C(=O)c2cc(-c3ccccc3)nn2-c2cc(-c3cccc(Cl)c3)ccc2C12CC2 [Example 130, 9-(3-Chloro-phenyl)-5-methyl-2-phenyl-spiro[benzo[f]pyrazolo[1,5-a][1,4]diazepine-6,1′-cyclopropan]-4(5H)-one]
< 100	CCCc1ncccc1-c1ccc2c(c1)-n1cccc1C(=O)N(C)C21CC1 [Example 61, 5-Methyl-9-(2-propylpyridin-3-yl)-spiro[benzo[f]pyrrolo[1,2-a][1,4]diazepine-6,1′-cyclopropan]-4(5H)-one]
< 100	CNc1ccc(-c2ccc3c(c2)-n2cc(-c4ccccc4)cc2C(=O)N(C)C32CC2)cn1 [Example 118, 5-Methyl-2-phenyl-9-(6-methylamino-pyridin-3-yl)-spiro[benzo[f]pyrrolo[1,2-a][1,4]diazepine-6,1′-cyclopropan]-4(5H)-one]
< 100	CN1C(=O)c2cc(-c3nnco3)cn2-c2cc(-c3ccc(Cl)nc3)ccc2C12CC2 [Example 191]
< 100	Cc1ncccc1-c1ccc2c(c1)-n1cc(-c3ccnn3C)cc1C(=O)N(C)C21CC1 [Example 160]
< 100	Cc1ccc(-c2ccc3c(c2)-n2cc(Br)cc2C(=O)N(C)C32CC2)cn1 [Example 18, 2-Bromo-5-methyl-9-(6-methyl-pyridin-3-yl)-spiro[benzo[f]pyrrolo[1,2-a][1,4]diazepine-6,1′-cyclopropan]-4(5H)-one]
< 100	Cc1cc2n(c1)-c1cc(-c3cccnc3C)ccc1C1(CC1)N(C)C2=O [Example 144]
< 100	Cc1ncccc1-c1ccc2c(c1)-n1cc(-c3ccccc3F)cc1C(=O)N(C)C21CC1 [Example 151]
< 100	Cc1ccc(-c2ccc3c(c2)-n2cc(-c4ccnn4C)cc2C(=O)N(C)C32CC2)cn1 [Example 159]
< 100	CC1c2ccc(-c3ccc(N(C)C)nc3)cc2-n2cccc2C(=O)N1C (stereo not shown) [Example 219, 9-(6-Dimethylamino-pyridin-3-yl)-5,6-dimethyl-5,6-dihydro-benzo[f]pyrrolo[1,2-a][1,4]diazepin-4-one]
